Reference: the NIST ThermoML archive (doi:10.1016/j.fluid.2014.02.004)
± gives the expanded uncertainty stated by the source.

Test: osmotic coefficient (dimensionless); mn = molality of the nth substance listed, in mol/kg
Conditions: 298.15 K, 101 kPa, Liquid, isopiestic method

NCCCC(=O)O [4-aminobutanoic acid] + O
Conditions | osmotic coefficient
m1 = 0.1412 | 0.9884 ± 0.0006
m1 = 0.249 | 0.986 ± 0.0007
m1 = 0.3355 | 0.9866 ± 0.0007
m1 = 0.453 | 0.986 ± 0.0007
m1 = 0.6155 | 0.9889 ± 0.0006
m1 = 0.6809 | 0.991 ± 0.0005
m1 = 0.944 | 1.0041 ± 0.0002
m1 = 1.402 | 1.026 ± 0.0013

NCCCCCC(=O)O [6-aminohexanoic acid] + O
Conditions | osmotic coefficient
m1 = 0.1411 | 0.9889 ± 0.0006
m1 = 0.2493 | 0.9848 ± 0.0008
m1 = 0.3366 | 0.9833 ± 0.0008
m1 = 0.4538 | 0.9843 ± 0.0008
m1 = 0.617 | 0.9865 ± 0.0007
m1 = 0.6826 | 0.9886 ± 0.0006
m1 = 0.9388 | 1.0097 ± 0.0005
m1 = 1.388 | 1.036 ± 0.0018

NCCCCC(=O)O [5-aminovaleric acid] + O
Conditions | osmotic coefficient
m1 = 0.1414 | 0.987 ± 0.0007
m1 = 0.2493 | 0.9848 ± 0.0008
m1 = 0.3362 | 0.9845 ± 0.0008
m1 = 0.4531 | 0.9858 ± 0.0007
m1 = 0.618 | 0.9849 ± 0.0008
m1 = 0.6834 | 0.9874 ± 0.0006
m1 = 0.9461 | 1.0019 ± 0.0001
m1 = 1.397 | 1.029 ± 0.0015

NCCC(=O)O [3-aminopropanoic acid] + O
Conditions | osmotic coefficient
m1 = 0.1408 | 0.9912 ± 0.0004
m1 = 0.2482 | 0.9892 ± 0.0005
m1 = 0.335 | 0.988 ± 0.0006
m1 = 0.452 | 0.9882 ± 0.0006
m1 = 0.6148 | 0.9901 ± 0.0005
m1 = 0.6813 | 0.9905 ± 0.0005
m1 = 0.9542 | 0.9934 ± 0.0003
m1 = 1.43 | 1.0056 ± 0.0003
